Experimental data taken from the supplement of paper PMC11208160.

Test: recombinant barcode read abundance after kanamycin selection (control-corrected) (log10(CPM+1)); higher = more efficient recombination; sequences stand for … in AGTGCAGAGAAAATCGGCCAGTTTTCTCTGCCTGCAGTCCGCATGCCGT…ATTTATGCAGCGGACTGCCTTTCTCCCAAAGTGATAAACCGGACAGTATCATGGACCGGTTTTCCCGGTAATCCGTATTTGCAAGGTTGGTTTCACT; site = the 11-nt target
Protocol: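 Same pooled E. coli target screen (IS621 bridge recombinase, kanamycin selection, control-corrected CPM, mean of 2 biological replicates). Here the two core-binding nucleotides of the LTG and RTG of the bridge RNA target-binding loop are mutated. Target and donor CT cores are held constant, and the other 9 guide positions match the target. The target is read from the library oligo sequence. Molecule = full bridge RNA written as DNA: nt 1-80 from the library oligo, rest WT scaffold.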

Point of comparison: “ACGGGACCTTGGGTTCTAACCTGTTGCAGCT [ACGGGACCTCT_LTGcore_CT_RTGcore_AG] (site ACGGGACCTCT) (LTG core: CT, RTG core: AG)”, “recombinant barcode read abundance (log10)” value 1.07. Against it:
- AAACAGTCTTGGGTTCTAACCTGTTGCCTTG [AAACAGTCTAG_LTGcore_CT_RTGcore_CA] (site AAACAGTCTAG) (LTG core: CT, RTG core: CA) — higher, 1.28
- AAACAGTTCTGGGTTCTAACCTGTTGCCTAG [AAACAGTCTAG_LTGcore_TC_RTGcore_CT] (site AAACAGTCTAG) (LTG core: TC, RTG core: CT) — lower, 0.0714
- AAACATGCGTGGGTTCTAACCTGTTGCCTAG [AAACATGCTAG_LTGcore_CG_RTGcore_CT] (site AAACATGCTAG) (LTG core: CG, RTG core: CT) — lower, 0.0702
- AAACATGCTTGGGTTCTAACCTGTTGCCTAA [AAACATGCTAG_LTGcore_CT_RTGcore_TT] (site AAACATGCTAG) (LTG core: CT, RTG core: TT) — lower, 0.344
- AAACATGCTTGGGTTCTAACCTGTTGCCTCC [AAACATGCTAG_LTGcore_CT_RTGcore_GG] (site AAACATGCTAG) (LTG core: CT, RTG core: GG) — lower, 0.177
- AAACATGCTTGGGTTCTAACCTGTTGCCTGG [AAACATGCTAG_LTGcore_CT_RTGcore_CC] (site AAACATGCTAG) (LTG core: CT, RTG core: CC) — lower, 0.713
- AAACATGGATGGGTTCTAACCTGTTGCCTAG [AAACATGCTAG_LTGcore_GA_RTGcore_CT] (site AAACATGCTAG) (LTG core: GA, RTG core: CT) — lower, 0.0906
- AAACATGTATGGGTTCTAACCTGTTGCCTTA [AAACATGCTAG_LTGcore_TA_RTGcore_TA] (site AAACATGCTAG) (LTG core: TA, RTG core: TA) — lower, 0.0913
- ACGGGACATTGGGTTCTAACCTGTTGCAGAT [ACGGGACCTCT_LTGcore_AT_RTGcore_AT] (site ACGGGACCTCT) (LTG core: AT, RTG core: AT) — lower, 0.134
- ACGGGACCGTGGGTTCTAACCTGTTGCAGCG [ACGGGACCTCT_LTGcore_CG_RTGcore_CG] (site ACGGGACCTCT) (LTG core: CG, RTG core: CG) — lower, 0.086
- ACGGGACCTTGGGTTCTAACCTGTTGCAGAA [ACGGGACCTCT_LTGcore_CT_RTGcore_TT] (site ACGGGACCTCT) (LTG core: CT, RTG core: TT) — lower, 0.387
- ACGGGACCTTGGGTTCTAACCTGTTGCAGGC [ACGGGACCTCT_LTGcore_CT_RTGcore_GC] (site ACGGGACCTCT) (LTG core: CT, RTG core: GC) — within 0.2 log units, 0.944
- ACGGGACTATGGGTTCTAACCTGTTGCAGTA [ACGGGACCTCT_LTGcore_TA_RTGcore_TA] (site ACGGGACCTCT) (LTG core: TA, RTG core: TA) — lower, 0.0155
- AGGAGGTAATGGGTTCTAACCTGTTGCCTTT [AGGAGGTCTAG_LTGcore_AA_RTGcore_AA] (site AGGAGGTCTAG) (LTG core: AA, RTG core: AA) — lower, 0.0693
- AGGAGGTAGTGGGTTCTAACCTGTTGCCTCT [AGGAGGTCTAG_LTGcore_AG_RTGcore_AG] (site AGGAGGTCTAG) (LTG core: AG, RTG core: AG) — lower, 0.0957
- AGGAGGTATTGGGTTCTAACCTGTTGCCTAG [AGGAGGTCTAG_LTGcore_AT_RTGcore_CT] (site AGGAGGTCTAG) (LTG core: AT, RTG core: CT) — lower, 0.214
- AGGAGGTCCTGGGTTCTAACCTGTTGCCTAG [AGGAGGTCTAG_LTGcore_CC_RTGcore_CT] (site AGGAGGTCTAG) (LTG core: CC, RTG core: CT) — lower, 0.336
- AGGAGGTCGTGGGTTCTAACCTGTTGCCTAG [AGGAGGTCTAG_LTGcore_CG_RTGcore_CT] (site AGGAGGTCTAG) (LTG core: CG, RTG core: CT) — lower, 0.0327
- AGGAGGTCTTGGGTTCTAACCTGTTGCCTCC [AGGAGGTCTAG_LTGcore_CT_RTGcore_GG] (site AGGAGGTCTAG) (LTG core: CT, RTG core: GG) — lower, 0.0685
- AGGAGGTCTTGGGTTCTAACCTGTTGCCTCT [AGGAGGTCTAG_LTGcore_CT_RTGcore_AG] (site AGGAGGTCTAG) (LTG core: CT, RTG core: AG) — within 0.2 log units, 1.02
- AGGAGGTCTTGGGTTCTAACCTGTTGCCTGA [AGGAGGTCTAG_LTGcore_CT_RTGcore_TC] (site AGGAGGTCTAG) (LTG core: CT, RTG core: TC) — lower, 0.643
- AGGAGGTCTTGGGTTCTAACCTGTTGCCTTC [AGGAGGTCTAG_LTGcore_CT_RTGcore_GA] (site AGGAGGTCTAG) (LTG core: CT, RTG core: GA) — lower, 0.107
- AGGAGGTGCTGGGTTCTAACCTGTTGCCTAG [AGGAGGTCTAG_LTGcore_GC_RTGcore_CT] (site AGGAGGTCTAG) (LTG core: GC, RTG core: CT) — lower, 0.292
- AGGAGGTGCTGGGTTCTAACCTGTTGCCTGC [AGGAGGTCTAG_LTGcore_GC_RTGcore_GC] (site AGGAGGTCTAG) (LTG core: GC, RTG core: GC) — within 0.2 log units, 0.911
- AGGAGGTTATGGGTTCTAACCTGTTGCCTTA [AGGAGGTCTAG_LTGcore_TA_RTGcore_TA] (site AGGAGGTCTAG) (LTG core: TA, RTG core: TA) — lower, 0.209
- AGGAGGTTCTGGGTTCTAACCTGTTGCCTAG [AGGAGGTCTAG_LTGcore_TC_RTGcore_CT] (site AGGAGGTCTAG) (LTG core: TC, RTG core: CT) — lower, 0.0562
- AGGAGGTTTTGGGTTCTAACCTGTTGCCTAA [AGGAGGTCTAG_LTGcore_TT_RTGcore_TT] (site AGGAGGTCTAG) (LTG core: TT, RTG core: TT) — lower, 0.218
- AGGCCTCATTGGGTTCTAACCTGTTGCCTAT [AGGCCTCCTAG_LTGcore_AT_RTGcore_AT] (site AGGCCTCCTAG) (LTG core: AT, RTG core: AT) — lower, 0.0616
- AGGCCTCCGTGGGTTCTAACCTGTTGCCTAG [AGGCCTCCTAG_LTGcore_CG_RTGcore_CT] (site AGGCCTCCTAG) (LTG core: CG, RTG core: CT) — lower, 0.0631
- AGGCCTCCGTGGGTTCTAACCTGTTGCCTCG [AGGCCTCCTAG_LTGcore_CG_RTGcore_CG] (site AGGCCTCCTAG) (LTG core: CG, RTG core: CG) — lower, 0.0742
- AGGCCTCCTTGGGTTCTAACCTGTTGCCTTA [AGGCCTCCTAG_LTGcore_CT_RTGcore_TA] (site AGGCCTCCTAG) (LTG core: CT, RTG core: TA) — lower, 0.635
- AGGCCTCGCTGGGTTCTAACCTGTTGCCTAG [AGGCCTCCTAG_LTGcore_GC_RTGcore_CT] (site AGGCCTCCTAG) (LTG core: GC, RTG core: CT) — lower, 0.224
- AGGCCTCGGTGGGTTCTAACCTGTTGCCTAG [AGGCCTCCTAG_LTGcore_GG_RTGcore_CT] (site AGGCCTCCTAG) (LTG core: GG, RTG core: CT) — within 0.2 log units, 1.04
- AGGCCTCTATGGGTTCTAACCTGTTGCCTTA [AGGCCTCCTAG_LTGcore_TA_RTGcore_TA] (site AGGCCTCCTAG) (LTG core: TA, RTG core: TA) — lower, 0.0149
- AGGCCTCTGTGGGTTCTAACCTGTTGCCTCA [AGGCCTCCTAG_LTGcore_TG_RTGcore_TG] (site AGGCCTCCTAG) (LTG core: TG, RTG core: TG) — lower, 0.186
- AGGCGGGAATGGGTTCTAACCTGTTGCGGTT [AGGCGGGCTCC_LTGcore_AA_RTGcore_AA] (site AGGCGGGCTCC) (LTG core: AA, RTG core: AA) — lower, 0.154
- AGGCGGGCCTGGGTTCTAACCTGTTGCGGAG [AGGCGGGCTCC_LTGcore_CC_RTGcore_CT] (site AGGCGGGCTCC) (LTG core: CC, RTG core: CT) — higher, 1.48
- AGGCGGGCGTGGGTTCTAACCTGTTGCGGAG [AGGCGGGCTCC_LTGcore_CG_RTGcore_CT] (site AGGCGGGCTCC) (LTG core: CG, RTG core: CT) — higher, 2.17
- AGGCGGGCTTGGGTTCTAACCTGTTGCGGAG [AGGCGGGCTCC_LTGcore_CT_RTGcore_CT] (site AGGCGGGCTCC) (LTG core: CT, RTG core: CT) — higher, 1.66
- AGGCGGGGCTGGGTTCTAACCTGTTGCGGGC [AGGCGGGCTCC_LTGcore_GC_RTGcore_GC] (site AGGCGGGCTCC) (LTG core: GC, RTG core: GC) — lower, 0.0608
- AGGCGGGTGTGGGTTCTAACCTGTTGCGGAG [AGGCGGGCTCC_LTGcore_TG_RTGcore_CT] (site AGGCGGGCTCC) (LTG core: TG, RTG core: CT) — lower, 0.159
- AGGCGGTAGTGGGTTCTAACCTGTTGCTTAG [AGGCGGTCTAA_LTGcore_AG_RTGcore_CT] (site AGGCGGTCTAA) (LTG core: AG, RTG core: CT) — lower, 0.187
- AGGCGGTAGTGGGTTCTAACCTGTTGCTTCT [AGGCGGTCTAA_LTGcore_AG_RTGcore_AG] (site AGGCGGTCTAA) (LTG core: AG, RTG core: AG) — lower, 0.197
